Where a SMILES comes first, the peptide text is derived from it. Where no end group is shown, it is not given here. [ ]: non-standard residue; d: D form.

First the molecules themselves.
B1: Retro-inverso LPA-2(89-72), D-I79 (peptide)
peptide: H-[dV][dH][dL][dL][dD][dR][dL][dN][dE][dL][dI][dN][dS][dI][dQ][dI][dV][dN]-NH2
SMILES: CC[C@@H](C)[C@@H](NC(=O)[C@@H](CC(C)C)NC(=O)[C@@H](CCC(=O)O)NC(=O)[C@@H](CC(N)=O)NC(=O)[C@@H](CC(C)C)NC(=O)[C@@H](CCCNC(=N)N)NC(=O)[C@@H](CC(=O)O)NC(=O)[C@@H](CC(C)C)NC(=O)[C@@H](CC(C)C)NC(=O)[C@@H](Cc1c[nH]cn1)NC(=O)[C@H](N)C(C)C)C(=O)N[C@H](CC(N)=O)C(=O)N[C@H](CO)C(=O)N[C@@H](C(=O)N[C@H](CCC(N)=O)C(=O)N[C@@H](C(=O)N[C@@H](C(=O)N[C@H](CC(N)=O)C(N)=O)C(C)C)[C@H](C)CC)[C@H](C)CC
B2: Retro-inverso LPA-1(24-6), D-I10 (peptide)
peptide: H-[dI][dD][dN][dI][dR][dT][dV][dI][dT][dK][dI][dL][dT][dK][dI][dD][dD][dQ][dV]-NH2
SMILES: CC[C@@H](C)[C@@H](N)C(=O)N[C@H](CC(=O)O)C(=O)N[C@H](CC(N)=O)C(=O)N[C@@H](C(=O)N[C@H](CCCNC(=N)N)C(=O)N[C@@H](C(=O)N[C@@H](C(=O)N[C@@H](C(=O)N[C@@H](C(=O)N[C@H](CCCCN)C(=O)N[C@@H](C(=O)N[C@H](CC(C)C)C(=O)N[C@@H](C(=O)N[C@H](CCCCN)C(=O)N[C@@H](C(=O)N[C@H](CC(=O)O)C(=O)N[C@H](CC(=O)O)C(=O)N[C@H](CCC(N)=O)C(=O)N[C@@H](C(N)=O)C(C)C)[C@H](C)CC)[C@H](C)O)[C@H](C)CC)[C@H](C)O)[C@H](C)CC)C(C)C)[C@H](C)O)[C@H](C)CC
B3: Retro-inverso LPA-1(24-6), D-T10 (peptide)
peptide: H-[dI][dD][dN][dI][dR][dT][dV][dI][dT][dK][dI][dL][dT][dK][dT][dD][dD][dQ][dV]-NH2
SMILES: CC[C@@H](C)[C@@H](N)C(=O)N[C@H](CC(=O)O)C(=O)N[C@H](CC(N)=O)C(=O)N[C@@H](C(=O)N[C@H](CCCNC(=N)N)C(=O)N[C@@H](C(=O)N[C@@H](C(=O)N[C@@H](C(=O)N[C@@H](C(=O)N[C@H](CCCCN)C(=O)N[C@@H](C(=O)N[C@H](CC(C)C)C(=O)N[C@@H](C(=O)N[C@H](CCCCN)C(=O)N[C@@H](C(=O)N[C@H](CC(=O)O)C(=O)N[C@H](CC(=O)O)C(=O)N[C@H](CCC(N)=O)C(=O)N[C@@H](C(N)=O)C(C)C)[C@H](C)O)[C@H](C)O)[C@H](C)CC)[C@H](C)O)[C@H](C)CC)C(C)C)[C@H](C)O)[C@H](C)CC
B4: Retro-inverso LPA-2(89-72), D-D79 (peptide)
peptide: H-[dV][dH][dL][dL][dD][dR][dL][dN][dE][dL][dD][dN][dS][dI][dQ][dI][dV][dN]-NH2
SMILES: CC[C@@H](C)[C@@H](NC(=O)[C@@H](CO)NC(=O)[C@@H](CC(N)=O)NC(=O)[C@@H](CC(=O)O)NC(=O)[C@@H](CC(C)C)NC(=O)[C@@H](CCC(=O)O)NC(=O)[C@@H](CC(N)=O)NC(=O)[C@@H](CC(C)C)NC(=O)[C@@H](CCCNC(=N)N)NC(=O)[C@@H](CC(=O)O)NC(=O)[C@@H](CC(C)C)NC(=O)[C@@H](CC(C)C)NC(=O)[C@@H](Cc1c[nH]cn1)NC(=O)[C@H](N)C(C)C)C(=O)N[C@H](CCC(N)=O)C(=O)N[C@@H](C(=O)N[C@@H](C(=O)N[C@H](CC(N)=O)C(N)=O)C(C)C)[C@H](C)CC

The first assay concerns the target T1, leptin receptor (ObR) (UniProt P48357 22-1165, limits assumed).
T1 sequence (looked up): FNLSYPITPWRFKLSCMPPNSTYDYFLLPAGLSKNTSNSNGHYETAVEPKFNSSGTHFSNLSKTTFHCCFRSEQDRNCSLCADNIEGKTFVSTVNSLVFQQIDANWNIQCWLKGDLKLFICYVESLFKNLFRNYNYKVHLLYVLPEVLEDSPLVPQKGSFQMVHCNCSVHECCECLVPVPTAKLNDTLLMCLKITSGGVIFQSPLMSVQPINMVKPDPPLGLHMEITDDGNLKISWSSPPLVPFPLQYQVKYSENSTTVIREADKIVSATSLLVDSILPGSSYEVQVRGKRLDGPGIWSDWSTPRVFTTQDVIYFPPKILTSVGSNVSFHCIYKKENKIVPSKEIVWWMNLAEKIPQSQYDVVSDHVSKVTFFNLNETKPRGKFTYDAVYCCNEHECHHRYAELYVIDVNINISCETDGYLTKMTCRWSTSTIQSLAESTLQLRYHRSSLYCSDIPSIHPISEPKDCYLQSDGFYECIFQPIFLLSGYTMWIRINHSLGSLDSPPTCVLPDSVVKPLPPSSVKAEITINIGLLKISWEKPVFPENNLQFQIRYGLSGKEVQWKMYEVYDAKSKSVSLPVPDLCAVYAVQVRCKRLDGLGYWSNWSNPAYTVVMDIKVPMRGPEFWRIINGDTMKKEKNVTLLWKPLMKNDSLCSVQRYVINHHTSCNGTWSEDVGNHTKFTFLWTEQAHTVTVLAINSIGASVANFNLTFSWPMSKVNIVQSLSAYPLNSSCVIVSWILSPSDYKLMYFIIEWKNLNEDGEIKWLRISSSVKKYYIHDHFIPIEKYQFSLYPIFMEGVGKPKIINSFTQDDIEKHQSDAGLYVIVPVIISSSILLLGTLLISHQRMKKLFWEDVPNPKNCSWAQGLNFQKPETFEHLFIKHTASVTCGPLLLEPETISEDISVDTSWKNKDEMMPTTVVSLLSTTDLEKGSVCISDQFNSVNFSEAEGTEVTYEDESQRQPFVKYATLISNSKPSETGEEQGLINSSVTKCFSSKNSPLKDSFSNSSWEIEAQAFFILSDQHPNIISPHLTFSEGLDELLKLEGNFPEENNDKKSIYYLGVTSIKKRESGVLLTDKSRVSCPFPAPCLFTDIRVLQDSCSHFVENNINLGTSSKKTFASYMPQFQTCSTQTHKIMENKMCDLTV
As to the kind of experiment: cell-based or functional assay.
In the case of B1, the “IC50, inhibition of leptin-induced growth of MCF-7 cells” value stood at 9.7 nM. Same read-out and setting: for B2 the value was 17.6 nM; for B3, 16.9 nM.

On to B4, for which the “IC50, inhibition of leptin-induced growth of MCF-7 cells” value amounted to 19.4 nM.

In the next assay the test system is MCF-7 cells.
Assay: not given
The format is cell-based. From the text: These peptides were compared to full length LPA-1 with respect to their abilities to inhibit leptin-induced cell growth. […] The same approach was employed with LPA-2 creating […] of the leptin molecule). […] Another LPA-2 scrambled peptide that may be used is […] NO: 3]. […] Retro-inverso peptides are peptides constructed with the reverse sequence and containing all D-amino acids. […] Retro-inverso LPA-1(24-6) sequence […] NO: 31] and retro-inverso LPA-2(89-72) […] NO: 32]. […] Studies were carried out using both MCF-7 and HT-29 cells. […] MCF-7 and HT-29 cells were cultured in DMEM-F12 medium containing 5% fetal bovine serum (FBS), 5 μg/ml insulin, 1% amphopthericin B, 100 μg/ml streptomycin and 100 U/ml penicillin until they were 80% confluent. The cells were washed twice with 100 mM phosphate saline buffer (PBS), pH 7.2 and cultured for additional 2 days in the same medium but without FBS (basal medium). Cells were washed as described before and cultured in basal medium containing the leptin peptides of the present invention or controls as described above.
Consider `CC[C@@H](C)[C@@H](N)C(=O)N[C@H](CC(=O)O)C(=O)N[C@H](CC(N)=O)C(=O)N[C@@H](C(=O)N[C@H](CCCNC(=N)N)C(=O)N[C@@H](C(=O)N[C@@H](C(=O)N[C@@H](C(=O)N[C@@H](C(=O)N[C@H](CCCCN)C(=O)N[C@@H](C(=O)N[C@H](CC(C)C)C(=O)N[C@@H](C(=O)N[C@H](CCCCN)C(=O)N[C@@H](C(=O)N[C@H](CC(=O)O)C(=O)N[C@H](CC(=O)O)C(=O)N[C@H](CCC(N)=O)C(=O)N[C@@H](C(N)=O)C(C)C)[C@H](C)CC)[C@H](C)O)[C@H](C)CC)[C@H](C)O)[C@H](C)CC)C(C)C)[C@H](C)O)[C@H](C)CC` [D-I10] (H-[dI][dD][dN][dI][dR][dT][dV][dI][dT][dK][dI][dL][dT][dK][dI][dD][dD][dQ][dV]-NH2), for which 17.6 nM corresponded to half-maximal inhibition (IC50). On the same count and under the same terms, for NVIQISNVLENLRDLLHV-NH2 the value was 15.6 nM. In turn, VQDDAKTLIKTIVTRINDI-NH2 showed an IC50 of 88 nM. Still for that read-out and setting: the result for VQDDIKTLIKTIVTRINDI-NH2 reads 21 nM; that for “NVIQISNDLENLRDLLHV-NH2 [D79 (original amino acid)]”, 32 nM. NVIQISNALENLRDLLHV-NH2 returned an IC50 of 54 nM. On the same count and under the same terms, for `CC[C@@H](C)[C@@H](NC(=O)[C@@H](CC(C)C)NC(=O)[C@@H](CCC(=O)O)NC(=O)[C@@H](CC(N)=O)NC(=O)[C@@H](CC(C)C)NC(=O)[C@@H](CCCNC(=N)N)NC(=O)[C@@H](CC(=O)O)NC(=O)[C@@H](CC(C)C)NC(=O)[C@@H](CC(C)C)NC(=O)[C@@H](Cc1c[nH]cn1)NC(=O)[C@H](N)C(C)C)C(=O)N[C@H](CC(N)=O)C(=O)N[C@H](CO)C(=O)N[C@@H](C(=O)N[C@H](CCC(N)=O)C(=O)N[C@@H](C(=O)N[C@@H](C(=O)N[C@H](CC(N)=O)C(N)=O)C(C)C)[C@H](C)CC)[C@H](C)CC` [D-I79] (H-[dV][dH][dL][dL][dD][dR][dL][dN][dE][dL][dI][dN][dS][dI][dQ][dI][dV][dN]-NH2) the value was 9.7 nM; for `CC[C@@H](C)[C@@H](N)C(=O)N[C@H](CC(=O)O)C(=O)N[C@H](CC(N)=O)C(=O)N[C@@H](C(=O)N[C@H](CCCNC(=N)N)C(=O)N[C@@H](C(=O)N[C@@H](C(=O)N[C@@H](C(=O)N[C@@H](C(=O)N[C@H](CCCCN)C(=O)N[C@@H](C(=O)N[C@H](CC(C)C)C(=O)N[C@@H](C(=O)N[C@H](CCCCN)C(=O)N[C@@H](C(=O)N[C@H](CC(=O)O)C(=O)N[C@H](CC(=O)O)C(=O)N[C@H](CCC(N)=O)C(=O)N[C@@H](C(N)=O)C(C)C)C(C)C)[C@H](C)O)[C@H](C)CC)[C@H](C)O)[C@H](C)CC)C(C)C)[C@H](C)O)[C@H](C)CC` [D-V10] (H-[dI][dD][dN][dI][dR][dT][dV][dI][dT][dK][dI][dL][dT][dK][dV][dD][dD][dQ][dV]-NH2), 17.4 nM; for `CC[C@@H](C)[C@@H](NC(=O)[C@@H](CO)NC(=O)[C@@H](CC(N)=O)NC(=O)[C@H](NC(=O)[C@@H](CC(C)C)NC(=O)[C@@H](CCC(=O)O)NC(=O)[C@@H](CC(N)=O)NC(=O)[C@@H](CC(C)C)NC(=O)[C@@H](CCCNC(=N)N)NC(=O)[C@@H](CC(=O)O)NC(=O)[C@@H](CC(C)C)NC(=O)[C@@H](CC(C)C)NC(=O)[C@@H](Cc1c[nH]cn1)NC(=O)[C@H](N)C(C)C)C(C)C)C(=O)N[C@H](CCC(N)=O)C(=O)N[C@@H](C(=O)N[C@@H](C(=O)N[C@H](CC(N)=O)C(N)=O)C(C)C)[C@H](C)CC` [D-V79] (H-[dV][dH][dL][dL][dD][dR][dL][dN][dE][dL][dV][dN][dS][dI][dQ][dI][dV][dN]-NH2), 13.6 nM.

Values taken from patent publication US20120245104A1, “NOVEL RETRO-INVERSO LEPTIN PEPTIDE ANTAGONISTS” (priority 2011, published 2012).
